From a melting point compilation (Tetko et al.; mined from patent text by program, amines drawn as free bases though some values may be those of a salt)

`CCc1ccc2oc(C(=O)Nc3ccc(-c4ccc(S(=O)(=O)NC(C(=O)OC)C(C)C)cc4)cc3)c(C)c2c1OCc1ccccc1` (stereo not given) showed a melting point of 191 to 193 °C.
`CCN(CC)CCNc1ccc(NCCNCCO)c2c1C(=O)c1c(O)ccc(O)c1C2=O` gave a melting point of 165 to 167 °C.
With `NC(=S)C1(c2ccccn2)SCCCS1` the melting point was 214 °C.
For `CCCC(=O)NCCC1=CCc2cc(F)c(OC)cc21`, the melting point was 90 to 92 °C.
Compound `CC(C)Cn1c2c(c(=O)n(C)c1=O)C(=O)C(=Cc1cccnc1)S2` has a melting point of 215 to 216 °C.
For `NC(=O)Cn1c(=O)c(=O)[nH]c2ccccc21`, the melting point was greater than 300 °C.
With `CCOC(=O)c1ccc(CCC(=O)O)cc1` the melting point was 108 to 110 °C.
With `Fc1ccc(-c2cn([C@H]3CN4CCC3CC4)nn2)cn1` the melting point was 147 °C.
Compound `CC(=O)c1cn(S(=O)(=O)c2ccccc2)c2nccc(-c3ccccc3)c12` has a melting point of 138 to 140 °C.
With `CCN(CC)CCCCC(=O)c1cc(Cl)c(N)cc1OCc1cc(OC)cc(OC)c1` the melting point was 105 to 107 °C.
`Cc1cc(-n2c(=O)cc(C(F)(F)F)n(C)c2=O)c(F)cc1C#N` showed a melting point of 186 °C.
Work on `Cc1oc(-c2ccccc2)nc1COc1ccc(CCCO)cc1` yielded a melting point of 70 to 71 °C.
Work on `Oc1ncnc2c(F)ccc(F)c12` yielded a melting point of 257 to 258 °C.
With `O=C(c1ccccc1)c1nsc(N2CCN(c3ccccn3)CC2)n1` the melting point was 110 to 111 °C.
`CCOC(=O)c1ncc2[nH]c3cccc(Oc4ccc([N+](=O)[O-])cc4)c3c2c1COC` showed a melting point of 231 to 232 °C.
For `FC(F)(F)C(F)(F)C(F)(F)C(F)(F)C(F)(F)C(F)(F)C(F)(F)C(F)(F)C(F)(F)Br`, the melting point was 30 °C.
Compound `CCC(N)(P(=O)(O)O)P(=O)(O)O` has a melting point of 282 °C.
`Cc1cc(C)n(-c2nc(Nc3ccc(Cl)c(Cl)c3)c3ccccc3n2)n1` gave a melting point of 224 to 226 °C.
With `COC(=O)N1C(=S)NC(C)=C(C(=O)OC(C)C)C1c1cccc([N+](=O)[O-])c1` (stereo not given) the melting point was 130 to 132 °C.
`Nc1ccc(Cl)cc1C(=O)NCCCn1ccnc1` showed a melting point of 155 to 157 °C.
In the case of `Cc1ccc(N=Nc2ccc(-c3ccc(-c4ccc(N=Nc5ccc(C)cn5)cc4OC(C)C)o3)c(OC(C)C)c2)nc1`, the melting point is reported as 185 to 194 °C.
`CCCn1c(=O)c2[nH]c(C3CCCC3)nc2n(CCc2ccc(NC(=O)C3CCCC3)cc2)c1=O` showed a melting point greater than 270 °C.
`COc1ccc(C(=O)Nc2ccccc2)cc1NCc1ccccc1C` showed a melting point of 167 to 169 °C.
`O=C(c1ccc2n1Cc1ccccc1N(S(=O)(=O)c1ccc(Br)cc1)C2)C(Cl)(Cl)Cl` gave a melting point of 182 to 183 °C.
With `COC(=O)c1cc(Cl)cc2ccoc12` the melting point was 144 to 145 °C.
With `O=C(O)COc1ccc(SCc2ccc(OCc3ccc(OC(F)(F)F)cc3)cc2)c2c1CCC2` the melting point was 140 to 142 °C.
`COC1(c2ccccc2)OC=C(c2ccc(C(=O)O)cc2)C1=O` (stereo not given) gave a melting point of 212 to 214 °C.
In the case of `Nc1ncnc2c1nc(SCC(O)COc1ccccc1)n2C1OC(CO)C(O)C1O` (stereo not given), the melting point is reported as 100 to 110 °C.
In the case of `Cc1ccc(-c2ncc(N(C)CCCCO)nc2-c2ccc(C)cc2)cc1`, the melting point is reported as 94 to 96 °C.
`NS(=O)(=O)c1ccc(Nc2ccccc2)c([N+](=O)[O-])c1` showed a melting point of 155 °C.
In the case of `CC(Oc1ccc(Oc2ccc(C(F)(F)F)cn2)cc1)C(=O)N1CCCO1` (stereo not given), the melting point is reported as 83 to 85 °C.
Compound `O=C(NCCCCc1ccccc1)Oc1ccc2oc3ccccc3c2c1` has a melting point of 113 to 114 °C.
For `CCNc1c(-c2ccccc2C)nc2c3cc(OC)ccc3ccn12`, the melting point was 153 to 154 °C.
In the case of `CN(C)C(=O)c1cccnc1S`, the melting point is reported as 200 to 208 °C.
`CCCc1c2nc(C(=O)OCC)cc(C)c2cc2c(=O)cc(C(=O)OCC)oc12` gave a melting point of 165 to 168 °C.
Work on `COC(=O)c1cc(-n2cnn(Cc3ccc(F)cc3)c2=O)nn1Cc1ccc(OC)cc1` yielded a melting point of 139 to 140 °C.
Work on `COc1ccccc1-n1nnc2cc(F)c(NC(C)=O)cc21` yielded a melting point of 174 to 175 °C.
Work on `CN(C(=O)CSc1nccc(-c2ccccn2)n1)c1ccc(Cl)cc1` yielded a melting point of 142 °C.
`CC(=O)OC1CSC(Oc2ccc(Cl)c(-c3cccnc3)c2)C(OC(C)=O)C1OC(C)=O` (stereo not given) showed a melting point of 133 °C.
Work on `CO[C@@H]([C@H](OC)[C@H](O)COS(C)(=O)=O)[C@H](O)COS(C)(=O)=O` yielded a melting point of 112 to 114 °C.
`CN1C(=O)C(c2cc[nH]c2)(c2cccc(O)c2)N=C1N` (stereo not given) showed a melting point of 142 to 145 °C.
Compound `CC=CCOc1ccc(C)c2c1C(=O)CC2` has a melting point of 87.5 to 92 °C.
Work on `COC(=O)c1ccc(-c2ccc3nnn(Cc4cc5cccnc5cc4F)c3n2)cc1F` yielded a melting point of 213 to 215 °C.
For `CC(/C=C/c1c(C)sc(C)c1C)=C(F)\C=C\C(C)=C\C=O`, the melting point was 129 to 131 °C.
Work on `Cc1nc(C)c(C(C)(O)c2ccoc2)o1` (stereo not given) yielded a melting point of 93 to 95 °C.
In the case of `Cc1c(SCCCl)ccnc1CSc1nc2ccccc2[nH]1`, the melting point is reported as 178 to 180 °C.
For `CC(C)(C)C#CC(O)C#CC(C)(C)C`, the melting point was 67 to 70 °C.
`CC(C)N1CC(CCl)C(c2ccccc2)(c2ccccc2)C1=O` (stereo not given) showed a melting point of 114 to 116 °C.
`CC(Oc1ccnc2cc(Cl)ccc12)c1ccccc1F` (stereo not given) gave a melting point of 53 to 54 °C.
With `O=C(Nc1nccs1)c1nc(-c2ccc(CN3CCOCC3)cc2)[nH]c1-c1ccc(Cl)cc1` the melting point was 253 to 255 °C.
For `N#Cc1cc([N+](=O)[O-])cc(O)c1O`, the melting point was 186 to 188 °C.
For `COc1ccc(C(=O)C=CC(=O)O)cc1OC`, the melting point was 174 to 175 °C.
For `Cn1c([N+](=O)[O-])cnc1-c1nc2ccccc2c(=O)[nH]1`, the melting point was 256 to 260 °C.
With `O=S(=O)(Nc1ccc2[nH]ncc2c1)C1CCNCC1` the melting point was 120 to 123 °C.
In the case of `Nc1cccc(Oc2ccc(C(=O)c3cccc(N)c3)cc2)c1`, the melting point is reported as 48 to 52 °C.
`Cn1c(=O)n(O)c(=O)c2cc(F)c(F)cc21` showed a melting point of 239 to 241 °C.
Compound `COC(=O)c1c(-c2ccc(C(F)(F)F)cc2)ccc2ccccc12` has a melting point of 74 to 76 °C.
`O=C(Cl)Oc1c(CCl)cccc1CCl` showed a melting point of 71.5 to 73.5 °C.
`CN(C)c1ccc(C2OC(C)(C)N=C2c2cccc(Cl)c2)cc1` (stereo not given) showed a melting point of 96 to 97 °C.
In the case of `CCCCCCCC(=O)N(C)Cc1cccc(-c2ccc(CCC(=O)O)cc2)c1`, the melting point is reported as 91 °C.
For `CCOC(=O)COc1ccccc1C(=O)Nc1ccc(O)cc1`, the melting point was 208 to 210 °C.
`COc1cc(Nc2nccc(-c3sc(-c4cccnc4)nc3C)n2)cc(OC)c1` showed a melting point of 229 to 230 °C.
For `Cc1c(Cc2ccc(C(C)C)cc2)c2c(c(C)c1NC(=O)CC(C)(C)C)CC(C)(C)O2`, the melting point was 170 to 171 °C.
Work on `O=C(Nc1ccc(-c2ccccc2)cc1)c1cccc([N+](=O)[O-])c1O` yielded a melting point of 152 °C.
For `CC1CCC2(OC1)OC1CC3C4CC(=O)C5CCCCC5(C)C4CCC3(C)C1C2C` (stereo not given), the melting point was 210 to 212 °C.
In the case of `CN(C)c1ccc(C=C2SC(=S)N(CC(=O)O)C2=O)cc1`, the melting point is reported as 260 to 264 °C.
`CC(=O)NC1(c2ccccc2)CCN(CCC(CN(CCc2ccccc2)CCc2ccccc2)c2ccc(Cl)c(Cl)c2)CC1` (stereo not given) showed a melting point of 60 to 62 °C.
In the case of `CC(=O)Nc1cc2c(cc1C#N)C(Nc1ccc(C(=O)OC(C)(C)C)cc1)CC2` (stereo not given), the melting point is reported as 173 to 174 °C.
Work on `COc1ccc(/C=C/C(=O)/C=C/c2ccc(C(F)(F)F)cc2)cc1` yielded a melting point of 144 to 146 °C.
`CNCCCOc1ccc(-c2ccc(C(=O)O)cc2)cc1-c1ccc2c(c1)C(C)(C)CCC2(C)C` gave a melting point of 242 °C.
With `COc1ccccc1Cc1cnc(NCCSCc2nc[nH]c2C)[nH]c1=O` the melting point was 163 to 167 °C.
With `O=S(=O)(c1ccccc1)c1ccc2c(c1)OCCN2C1CCNC1` (stereo not given) the melting point was 123 to 128 °C.
Work on `CCOC(=O)C(C#N)=Cc1cc(O)c(O)c([N+](=O)[O-])c1` yielded a melting point of 205 to 210 °C.
Work on `Cn1cc(C2=C(c3c4n(c5ccccc35)CCC(CNC(=O)OC(C)(C)C)C4)C(=O)N(O)C2=O)c2ccccc21` (stereo not given) yielded a melting point of 238 to 240 °C.
`CCC=CC(c1cc(F)ccc1F)S(=O)(=O)c1ccc(Cl)cc1` (stereo not given) showed a melting point of 99 to 100 °C.
Work on `CC(C)NC(=O)c1c(NC(=O)c2cc(C(F)(F)F)nn2-c2ncccc2Cl)ccc2ncccc12` yielded a melting point of 182 to 183 °C.
In the case of `OCc1sc2cc(Br)ccc2c1Cl`, the melting point is reported as 117 to 118 °C.
`CC(C)(C)OC(=O)N1CCC(Oc2ccc(-c3ccc(=O)[nH]n3)c(F)c2)CC1` gave a melting point of 117 to 119 °C.
`NC(=O)[C@H](Cc1cccnc1)NC(=O)OCc1ccccc1` gave a melting point of 153 °C.
With `Cc1c(Br)c(=O)n(C2CCCC2)c2nc(Nc3ccc(N4CCOCC4)nc3)ncc12` the melting point was 254 to 256 °C.
With `CC(C)C(N)CN1CCC(Nc2nc3ccccc3n2Cc2ccc3ccccc3n2)CC1` (stereo not given) the melting point was 135 °C.
For `CCOC(=O)CN1CCN(CCNc2ncc3ncnc(Nc4ccc(F)c(Cl)c4)c3n2)CC1`, the melting point was 128 to 129 °C.
`CC(C)OC(=O)c1cc(-n2c(Cl)nc(C(F)(F)F)cc2=O)c(F)cc1Cl` gave a melting point of 72 to 75 °C.
With `CC(C)(C)[Si](C)(C)OCC1(CO[Si](C)(C)C(C)(C)C)c2ccccc2-c2ccccc21` the melting point was 84 °C.
Compound `IC#CCOc1cccnc1` has a melting point of 130 °C.
Compound `Cc1ccccc1NC(=O)c1cc(Br)c(OCc2ccccc2)cc1OCc1ccccc1` has a melting point of 174 to 176 °C.
In the case of `COC(=O)c1c[nH]c2ccc(N)cc12`, the melting point is reported as 217 to 219 °C.
With `Nc1ccc(C(=O)NCC(=O)O)cc1F` the melting point was 198 to 200 °C.
`Oc1c2c(nn1-c1ncccc1C(F)(F)F)CCc1ccccc1-2` showed a melting point of 174 to 175 °C.
`O=C(NC1CC1)c1ccc(-c2ccc(C(CC3CCOCC3)c3ccc(S(=O)(=O)C4CC4)cc3)[nH]2)nc1` (stereo not given) gave a melting point of 134 to 136 °C.
Work on `Cc1ccc(NC(=O)OC(C)(C)C)c(C)c1` yielded a melting point of 90 to 91 °C.
For `COc1cc(C=O)c(Br)c(OC)c1OC`, the melting point was 69 °C.
Work on `O=C(Nc1cccc(C(F)(F)F)c1F)c1cccnc1NCc1ccc(=O)[nH]c1` yielded a melting point of 219 to 222 °C.
For `CC1(CCl)COC(N)=N1` (stereo not given), the melting point was 61 to 62 °C.
Compound `Cc1nc(N2CCN(Cc3ccc(C(F)(F)F)o3)C2=O)sc1C(=O)NCc1ccccc1` has a melting point of 143 to 145 °C.
`O=C(Nc1cnc2c(c1)nc1n2CCC1)c1cc2cc(F)ccc2n1Cc1cccc(F)c1` gave a melting point of 227 to 229 °C.
`O=C(O)c1ccc(OCCCCn2c(-c3ccccc3)nc(-c3ccccc3)c2-c2ccccc2)cc1` showed a melting point of 202 to 203 °C.
Compound `OCCn1cc(C(CC2CCCCCC2)=NO)c2c(Cl)cccc21` has a melting point of 120 to 123 °C.
Compound `CCCCSC(=O)NC(=O)C(c1ccccc1)c1ccccc1` has a melting point of 99 °C.
`COc1ccccc1-c1c(C#N)nn(-c2c(Cl)cc(C(F)(F)F)cc2Cl)c1N` showed a melting point of 193 °C.
